Data taken from ChEMBL document CHEMBL1131253, “A pyridoxine cyclic phosphate and its 6-azoaryl derivative selectively potentiate and antagonize activation of P2X1 receptors” (J Med Chem, 1998).
pEC50, pIC50: −log10 of the molar value.

Columns and labels:
P2X purinoceptor 1 = target: T1, P2X purinoceptor 1 (Rattus norvegicus, UniProt P47824); assay: Compound was tested in a functional ion channel assay of ATP-induced current at recombinant rat P2X1 receptor expressed in Xenopus oocytes.; assay type: cell-based, Oocyte
T1 sequence (P47824 whole entry): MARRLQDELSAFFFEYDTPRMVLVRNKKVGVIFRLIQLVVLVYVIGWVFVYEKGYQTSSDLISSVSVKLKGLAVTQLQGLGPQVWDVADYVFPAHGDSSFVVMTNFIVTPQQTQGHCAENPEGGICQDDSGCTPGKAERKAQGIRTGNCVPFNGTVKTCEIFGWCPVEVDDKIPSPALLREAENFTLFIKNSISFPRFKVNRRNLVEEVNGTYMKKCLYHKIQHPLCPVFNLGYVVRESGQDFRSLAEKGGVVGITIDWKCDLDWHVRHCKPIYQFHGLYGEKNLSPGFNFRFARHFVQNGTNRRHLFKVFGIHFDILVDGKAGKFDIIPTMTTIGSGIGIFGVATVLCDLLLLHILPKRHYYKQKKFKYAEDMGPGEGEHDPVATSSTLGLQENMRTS

P2X purinoceptor 3 = target: T2, P2X purinoceptor 3 (Rattus norvegicus, UniProt P49654); assay: Compound was tested in a functional ion channel assay of ATP-induced current at recombinant rat P2X3 receptor expressed in Xenopus oocytes.; assay type: cell-based, Oocyte
T2 sequence (P49654 whole entry): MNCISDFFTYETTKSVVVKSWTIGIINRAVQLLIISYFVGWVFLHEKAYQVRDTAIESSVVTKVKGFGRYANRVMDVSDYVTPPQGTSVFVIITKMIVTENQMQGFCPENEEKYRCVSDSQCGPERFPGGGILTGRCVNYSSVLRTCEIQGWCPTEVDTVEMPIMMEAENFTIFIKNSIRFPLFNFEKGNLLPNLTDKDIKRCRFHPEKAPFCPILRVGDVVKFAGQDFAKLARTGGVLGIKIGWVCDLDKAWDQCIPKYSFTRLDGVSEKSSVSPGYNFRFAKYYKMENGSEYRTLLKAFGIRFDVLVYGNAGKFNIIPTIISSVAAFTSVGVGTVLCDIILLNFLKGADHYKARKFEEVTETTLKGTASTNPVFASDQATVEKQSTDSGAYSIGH

pEC50 (P2X purinoceptor 1) | pIC50 (P2X purinoceptor 1) | pIC50 (P2X purinoceptor 3) | Structure (SMILES)
5.23 |  |  | Cc1ncc2c(c1O)COP(=O)(O)OC2
 | 7.37 |  | Cc1nc(/N=N/c2cc(S(=O)(=O)O)ccc2S(=O)(=O)O)c(COP(=O)(O)O)c(C=O)c1O [ISOPPADS]
 | 7.01 | 6.62 | Cc1nc(/N=N/c2ccc(S(=O)(=O)O)cc2S(=O)(=O)O)c(COP(=O)(O)O)c(C=O)c1O
 | 4.99 | 4.23 | Cc1nc(/N=N/c2cc(S(=O)(=O)O)ccc2S(=O)(=O)O)c2c(c1O)COP(=O)(O)OC2
